Target: T1, human Werner helicase (WRN, Uniprot Q14191, amino acids 517-1235 with L1074F point mutation; WRN-BV08) (Homo sapiens, UniProt Q14191, L1074F)
T1 construct: Uniprot Q14191, amino acids 517-1235 with L1074F point mutation; 8xHis (C, cleaved yes); TEV cleavage site (ENLYFQG) (C, cleaved yes); made in house; host or cells: Sf9 insect cells (baculovirus, pFastBac)
Experiment: WRN (BV08) ADP-Glo assay
Assay type: biochemical
Conditions: WRN-BV08 (aa 517-1235, L1074F); read-out: ADP-Glo_hWRN_IC50
Description: Example 2: WRN (BV08) ADP-Glo Assay Protocol
Bovine skin gelatin (BSG), dimethyl sulfoxide (DMSO), Pluronic F-127 and tris(2-carboxyethyl)phosphine hydrochloride solution (TCEP) were purchased from Sigma-Aldrich (St. Louis, MO) at the highest level of purity possible. Bicine buffer solution was purchased from Alfa Aesar (Tewksbury, MA) and compound NSC-617145 was purchased from Tocris (Minneapolis, MN). DNA duplex was synthesized at BGI (Shenzhen, China) and was composed of strand 1 with the sequence 5′-[…]-3′ (SEQ ID NO.: 1) and strand 2 with the sequence 5′-[…]-3′ (SEQ ID NO.: 2). DNA strands were annealed by heating to 95° C. for 5 minutes followed by slow cooling to room temperature. Compounds in 100% DMSO ([…]) were spotted into a 384-well white polystyrene Optiplate-384 (Perkin Elmer; Waltham, MA) assay plate using a LabCyte Echo 550 (Agilent; Santa Clara, CA). DMSO ([…]) was added to columns 12, rows A-H and column 24, rows I-P for the maximum signal control. Compound NSC-617145 ([…]) was added to columns 12, rows I-P and 24, rows A-H for the minimum signal control (100% inhibition). Compounds/DMSO were preincubated for 15 minutes at 25° C. with […] 2×WRN (BV08), prepared as described below, in assay buffer containing 20 mM Bicine (pH=7.5), 1 mM MgCl2, 10 mM KCl, 0.1% Pluronic F-127, 0.005% BSG, 1 mM TCEP. The reaction was initiated by the addition of […] 2× substrate mixture in assay buffer and incubated for 60 minutes at 25° C. The final concentrations of the assay components were 0.15 nM WRN, […], and 0.1 nM DNA duplex. The final DMSO concentration was 1% and the reference compound concentration (NSC-617145) used for the minimal signal control was […]. The reaction was stopped by the addition of the ADP-Glo Kit components (Promega; Madison, WI) as directed and the relative luminescence units (RLU) were read on an Envision 2104 (Perkin Elmer; Waltham, MA).
% Inhibition Calculation:
Where RLU=relative luminescence units, sample=signal in sample well, and MIN and MAX are the respective minimum and maximum signal controls.
Four-Parameter IC50 Fit Equation:
Where top and bottom are normally allowed to float but may be fixed at 100 or 0 respectively in a 3-parameter fit. Y is the % inhibition and X is the compound concentration.
Molecular Biology and virus production. The DNA encoding human Werner helicase (Uniprot Q14191, amino acids 517-1235 with L1074F point mutation) was generated with codon-optimization for […] expression and subcloned into the pFastBac vector with a TEV cleavable 8×His tag (SEQ ID NO: 5) (WRN—BV08). The baculovirus from the expression plasmid WRN—BV08 was generated from transfection and amplification following the manufacturer's instructions.
Sf9 cells grown in SF900II media were infected with 1:200 WRN—BV08 P2 virus and incubated for protein expression for 72 h at 27° C. The WRN protein was purified using the following protocol. The cell pellets were thawed and resuspended in buffer A (50 mM Tris, pH 7.5, 500 mM NaCl, 1 mM TCEP, 10% Glycerol) supplemented with 0.5% CHAPS, 1 mM PMSF, 1 μg/ml Leupeptin, 1 μg/ml Pepstatin, and the Pierce Universal Nuclease and cocktail tablet. Cleared lysates were loaded onto a Ni Sepharose™ excel column and washed with buffer A and bound protein was eluted with buffer A supplemented with 300 mM imidazole. The eluted protein was dialyzed against buffer A and digested by His-tagged TEV (1:5 ratio) overnight at 4° C. ZnCl2 was added into the sample at final 15 μM before loading onto a second Ni Sepharose™ excel column. Untagged WRN protein was eluted from the column with buffer A supplemented with 20 mM imidazole, dialyzed overnight into buffer B (50 mM Tris, pH 7.5, 1 mM TCEP, 10% Glycerol) supplemented with 150 mM NaCl and loaded onto a Heparin column. Proteins were eluted with a step gradient of buffer B supplemented with 150 mM, 200 mM, 300 mM and 500 mM NaCl. […]

T1 sequence (Q14191 with tags, fused parts or gaps L1074F): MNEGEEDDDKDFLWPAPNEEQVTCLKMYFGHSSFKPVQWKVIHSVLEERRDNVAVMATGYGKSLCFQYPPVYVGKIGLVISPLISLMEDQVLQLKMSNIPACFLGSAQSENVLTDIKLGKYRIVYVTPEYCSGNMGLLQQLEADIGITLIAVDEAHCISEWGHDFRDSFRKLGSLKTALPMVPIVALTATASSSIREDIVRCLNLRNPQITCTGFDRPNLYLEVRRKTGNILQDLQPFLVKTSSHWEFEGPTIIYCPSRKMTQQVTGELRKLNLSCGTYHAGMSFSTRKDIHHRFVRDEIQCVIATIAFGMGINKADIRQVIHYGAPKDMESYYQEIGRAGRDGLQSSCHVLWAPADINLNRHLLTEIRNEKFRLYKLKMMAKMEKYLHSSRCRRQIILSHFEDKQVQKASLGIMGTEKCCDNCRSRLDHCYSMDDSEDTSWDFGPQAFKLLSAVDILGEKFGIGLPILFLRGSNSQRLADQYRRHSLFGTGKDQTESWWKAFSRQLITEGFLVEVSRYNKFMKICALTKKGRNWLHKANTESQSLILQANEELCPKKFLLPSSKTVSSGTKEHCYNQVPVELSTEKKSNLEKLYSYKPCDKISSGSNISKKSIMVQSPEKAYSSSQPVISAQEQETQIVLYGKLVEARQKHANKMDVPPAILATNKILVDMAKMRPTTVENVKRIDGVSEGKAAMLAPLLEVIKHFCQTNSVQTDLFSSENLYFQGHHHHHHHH

Row | Structure (SMILES) | IC50 [nM]
1 | CCc1c(N2CCN(C(=O)c3ncc4c(c3O)CCO4)CC2)c(=O)n2nc(C3=CCOCC3)nc2n1CC(=O)NC12CC(C)(C1)C2 [I-5, 2-(2-(3,6-dihydro-2H-pyran-4-yl)-5-ethyl-6-(4-(4-hydroxy-2,3-dihydrofuro[2,3-c]pyridine-5-carbonyl)piperazin-1-yl)-7-oxo-[1,2,4]triazolo[1,5-a]pyrimidin-4(7H)-yl)-N-(3-methylbicyclo[1.1.1]pentan-1-yl)acetamide] | 50 to 100
2 | CCc1c(N2CCN(C(=O)c3ncc4c(c3O)CCO4)CC2)c(=O)n2nc(C3=CCOCC3)nc2n1CC(=O)NC12CC(F)(C1)C2 [I-6, 2-(2-(3,6-dihydro-2H-pyran-4-yl)-5-ethyl-6-(4-(4-hydroxy-2,3-dihydrofuro[2,3-c]pyridine-5-carbonyl)piperazin-1-yl)-7-oxo-[1,2,4]triazolo[1,5-a]pyrimidin-4(7H)-yl)-N-(3-fluorobicyclo[1.1.1]pentan-1-yl)acetamide] | > 500
3 | CCc1c(N2CCN(C(=O)c3ncc4c(c3O)CCO4)CC2)c(=O)n2nc(C3=CCOCC3)nc2n1CC(=O)NC12CC(C(F)F)(C1)C2 [I-8, N-(3-(difluoromethyl)bicyclo[1.1.1]pentan-1-yl)-2-(2-(3,6-dihydro-2H-pyran-4-yl)-5-ethyl-6-(4-(4-hydroxy-2,3-dihydrofuro[2,3-c]pyridine-5-carbonyl)piperazin-1-yl)-7-oxo-[1,2,4]triazolo[1,5-a]pyrimidin-4(7H)-yl)acetamide] | 100 to 500
4 | CCc1c(N2CCN(C(=O)c3ncc4c(c3O)CCO4)CC2)c(=O)n2nc(C3=CCOCC3)nc2n1CC(=O)NC12CC(OC)(C1)C2 [I-12, 2-(2-(3,6-dihydro-2H-pyran-4-yl)-5-ethyl-6-(4-(4-hydroxy-2,3-dihydrofuro[2,3-c]pyridine-5-carbonyl)piperazin-1-yl)-7-oxo-[1,2,4]triazolo[1,5-a]pyrimidin-4(7H)-yl)-N-(3-methoxybicyclo[1.1.1]pentan-1-yl)acetamide] | > 500
5 | CCc1c(N2CCN(C(=O)c3ncnc(C)c3O)[C@H]3CCC[C@@H]32)c(=O)c2nn(-c3ccnc(OC)c3)nc2n1CC(=O)NC12CC(C3CC3)(C1)C2 [I-54, 2-{6-[(4aS,7aS)-4-(5-hydroxy-6-methylpyrimidine-4-carbonyl)-octahydro-1H-cyclopenta[b]pyrazin-1-yl]-5-ethyl-2-(2-methoxypyridin-4-yl)-7-oxo-2H,4H,7H-[1,2,3]triazolo[4,5-b]pyridin-4-yl}-N-{3-cyclopropylbicyclo[1.1.1]pentan-1-yl}acetamide] | 5 to 50
6 | CCc1c(N2CCN(C(=O)c3ncnc(C)c3O)CC2)c(=O)c2nn(C3=CCOCC3)nc2n1CC(=O)NC12CC(C(C)C)(C1)C2 [I-59, 2-[2-(3,6-dihydro-2H-pyran-4-yl)-5-ethyl-6-[4-(5-hydroxy-6-methylpyrimidine-4-carbonyl)piperazin-1-yl]-7-oxo-2H,4H,7H-[1,2,3]triazolo[4,5-b]pyridin-4-yl]-N-[3-(propan-2-yl)bicyclo[1.1.1]pentan-1-yl]acetamide] | 5 to 50
7 | CCc1c(N2CCN(C(=O)c3ncnc(C)c3O)[C@H]3CCC[C@@H]32)c(=O)c2nn(C3=CCOCC3)nc2n1CC(=O)NC12CC(C3CC3)(C1)C2 [I-60, 2-{6-[(4aS,7aS)-4-(5-hydroxy-6-methylpyrimidine-4-carbonyl)-octahydro-1H-cyclopenta[b]pyrazin-1-yl]-2-(3,6-dihydro-2H-pyran-4-yl)-5-ethyl-7-oxo-2H,4H,7H-[1,2,3]triazolo[4,5-b]pyridin-4-yl}-N-{3-cyclopropylbicyclo[1.1.1]pentan-1-yl}acetamide] | 5 to 50
8 | CCc1c(N2CCN(C(=O)c3ncnc(C)c3O)[C@H]3CC[C@@H]32)c(=O)c2nn(-c3ccn(C4CC4)n3)nc2n1CC(=O)NC12CC(C(C)C)(C1)C2 [I-78, 2-[2-(1-cyclopropyl-1H-pyrazol-3-yl)-5-ethyl-6-[(1S,6S)-5-(5-hydroxy-6-methylpyrimidine-4-carbonyl)-2,5-diazabicyclo[4.2.0]octan-2-yl]-7-oxo-2H,4H,7H-[1,2,3]triazolo[4,5-b]pyridin-4-yl]-N-[3-(propan-2-yl)bicyclo[1.1.1]pentan-1-yl]acetamide] | 5 to 50
9 | CCc1c(N2CCN(C(=O)c3c(OC)ncc(C)c3O)CC2)c(=O)c2nn(-c3ccnc(OC)c3)nc2n1CC(=O)NC12CC(N3CCCC3)(C1)C2 [I-126, 2-{5-ethyl-6-[4-(4-hydroxy-2-methoxy-5-methylpyridine-3-carbonyl)piperazin-1-yl]-2-(2-methoxypyridin-4-yl)-7-oxo-2H,4H,7H-[1,2,3]triazolo[4,5-b]pyridin-4-yl}-N-[3-(pyrrolidin-1-yl)bicyclo[1.1.1]pentan-1-yl]acetamide] | > 500

The next lines start with the values.

Row | IC50 [nM] | Structure (SMILES)
10 | ≤ 5 | CCc1c(N2CCN(C(=O)c3ncnc(C)c3O)[C@H]3CC[C@@H]32)c(=O)c2nn(-c3ccnc(OC)c3)nc2n1CC(=O)NC12CC(C3CCC3)(C1)C2 [I-80, N-{3-cyclobutylbicyclo[1.1.1]pentan-1-yl}-2-{5-ethyl-6-[(1S,6S)-5-(5-hydroxy-6-methylpyrimidine-4-carbonyl)-2,5-diazabicyclo[4.2.0]octan-2-yl]-2-(2-methoxypyridin-4-yl)-7-oxo-2H,4H,7H-[1,2,3]triazolo[4,5-b]pyridin-4-yl}acetamide]
11 | ≤ 5 | CCc1c(N2CCN(C(=O)c3c(O)ccc4ncoc34)[C@H]3CC[C@@H]32)c(=O)c2nn(-c3ccnc(OC)c3)nc2n1CC(=O)NC12CC(C(C)C)(C1)C2 [I-136, 2-{5-ethyl-6-[(1S,6S)-5-(6-hydroxy-1,3-benzoxazole-7-carbonyl)-2,5-diazabicyclo[4.2.0]octan-2-yl]-2-(2-methoxypyridin-4-yl)-7-oxo-2H,4H,7H-[1,2,3]triazolo[4,5-b]pyridin-4-yl}-N-[3-(propan-2-yl)bicyclo[1.1.1]pentan-1-yl]acetamide]
12 | ≤ 5 | CCc1c(N2CCN(C(=O)c3ncnc(C)c3O)[C@H]3CC[C@@H]32)c(=O)c2nn(-c3ccc(OC)cc3)nc2n1CC(=O)NC12CC(C(C)C)(C1)C2 [I-145, 2-{5-ethyl-6-[(1S,6S)-5-(5-hydroxy-6-methylpyrimidine-4-carbonyl)-2,5-diazabicyclo[4.2.0]octan-2-yl]-2-(4-methoxyphenyl)-7-oxo-2H,4H,7H-[1,2,3]triazolo[4,5-b]pyridin-4-yl}-N-[3-(propan-2-yl)bicyclo[1.1.1]pentan-1-yl]acetamide]
13 | ≤ 5 | CCc1c(N2CCN(C(=O)c3nocc3O)[C@H]3CC[C@@H]32)c(=O)c2nn(C3=CCOCC3)nc2n1CC(=O)NC12CC(C(C)C)(C1)C2 [I-161, 2-[2-(3,6-dihydro-2H-pyran-4-yl)-5-ethyl-6-[(1S,6S)-5-(4-hydroxy-1,2-oxazole-3-carbonyl)-2,5-diazabicyclo[4.2.0]octan-2-yl]-7-oxo-2H,4H,7H-[1,2,3]triazolo[4,5-b]pyridin-4-yl]-N-[3-(propan-2-yl)bicyclo[1.1.1]pentan-1-yl]acetamide]
